Laboratory results taken from patent US5272169A, “(N-benzyl) acetaldehyde bicyclic heterocycles useful as topical antiinflammatories” (The DuPont Merck Pharmaceutical Company, priority 1993, dated 1993).

Tested on: TPA-induced edema in murine skin
Experiment: TPA-induced edema in murine skin (mouse ear), topical anti-inflammatory activity
Type: in vivo, mouse (male CF-1)
Details: TPA 1 μg/ear, compound topically in acetone at 100 ug/ear just prior to TPA, 4 h after TPA, 6 mm punch biopsy weight
Description: Anti-inflammatory activities of the investigational compounds were studied in murine skin using the following protocol. Edema was induced by tetradecanoyl phorbol acteate (TPA) (1 μg/ear) [Marks, F., Furstenberger, G., Kownatzki, E., Prostaglandin E Mediated Stimulation of Mouse Epidermis in vivo by Divalent Cation Ionophore A23187 and by Tumor Promotor TPA, Cancer Res. 1981, 41:696-702]. Male CF-1 (Charles River) […] were used. Investigational compounds (in acetone at 100 ug/ear) were applied to one ear just prior to application of the inflammagen. Four hours after TPA application, edema was determined by comparing the weights of 6 mm punch biopsies from control (solvent) and inflammagen-treated ears. Percent inhibitions were calculated using standard equations.

| SMILES | % Inhibition [%] |
| --- | --- |
| O=CCc1ccc(Cn2cnc3ccccc32)cc1 [Example 1 (Part D), 4-(benzimidazol-1'-ylmethyl)phenylacetaldehyde] | 63 |
| O=CCc1ccc(Cn2ncc3ccccc32)cc1 [Example 2 (Part D), 4-(indazol-1'-ylmethyl)phenylacetaldehyde] | 98 |
| O=CCc1ccc(Cn2nnc3ccccc32)cc1 [Example 3 (Part D), 4-(benzotriazol-1'-ylmethyl)phenylacetaldehyde] | 46 |
